The values below come from patent US20230183303A1, “Therapeutic Potential of Peptides from the "Netrin-Like" Domain of the FRZB Protein” (Université de Lorraine, priority 2020, published 2023).

One experiment has as its system CamKII pathway. As to the kind of experiment: Western blot of CamKII pathway activation in MC3T3-E1 cells. It counts as cell-based, mouse. Particulars: PEP16 at 300 or 1000 ng/mL; early osteogenesis stages. The source says:
Each time point was processed in three technical replicates. The medium was changed every two days.

Experiment [1] deals with ATDC5 micromasses. As to the kind of experiment: Glycosaminoglycan/proteoglycan quantification (Alcian blue staining) in ATDC5 micromasses. It counts as cell-based, mouse. The method, then: (§1) Mouse chondrogenic ATDC5 cells (cartilage-specific chondrogenic strain) were cultured until confluent in maintenance medium containing 1:1 Dulbecco's modified Eagle's medium (DMEM): Ham's F-12 mix (Gibco) supplemented with 1% antibiotic (AB, Penicillin-Streptomycin, Gibco), 5% fetal bovine serum (FBS) (Gibco) and enriched with […] human transferrin (Sigma) and 30 nM sodium selenite (Sigma). Cells were trypsinized, washed and resuspended at 2.10^7 cells/mL in a chondrogenic medium made of maintenance medium enriched by 1× of ITS premix (resulting in 10 μg/mL insulin, 10 μg/mL human transferrin and 30 nM sodium selenite) (Life technologies). One droplet of cell suspension (10 μL) was placed at the center of each well of a 24-well plate. Cells were allowed to adhere for 2 h at 37° C., followed by addition of 500 μL chondrogenic medium supplemented. […] After 14 days, induction of hypertrophic differentiation and mineralization was induced by the mineralization medium made of α-MEM medium (Gibco) containing 1% AB, 5% FBS, 5 μg/ml human transferrin, 1× of ITS premix, 50 μg/ml ascorbic acid-2-phosphate (AA) (Sigma) and 10 mM β-glycerophosphate (BGP) (Sigma). […] Micromasses were collected at time points 1, 7, 14 21 and 28 days. Each time point was processed in three technical replicates. The medium was changed every other day. […] The genes of interest were articular chondrocyte markers (aggrecan, type 2 collagen (col2a1)), YAP/TAZ target genes (ctgf, ankrd) and pro-catabolic enzymes involved in the pathophysiology of OA (mmp3, mmp13).
Micromasses were washed with PBS and fixed with 95% ice-cold ethanol for 30 min at 4° C. for staining. After washing with distilled water, micromasses were stained with Alcian Blue (0.1% Alcian Blue 8GX, (Sigma)), washed three times with distilled water to remove unbound staining and air-dried.

The subject of experiment [2] is MMP13. As to the kind of experiment: MMP13 enzymatic activity in culture supernatants of human articular cartilage explants (osteoarthritis). Particulars: PEP16 at 300 ng/mL for 7 days (3 stimulations); explants from 3 patients with end-stage osteoarthritis. It counts as cell-based. As for the experimental part: Explants of human articular cartilage were obtained from total knee replacement surgeries, from the orthopedic department from the CHRU of Nancy (Pr. Didier Mainard). Samples were washed three times in 1% AB/PBS and incubated for 24 h in growth medium (DMEM-F12, containing 1% AB (Gibco), 10% FBS (Gibco) and 5% L-glutamine (Thermoscientific). Explants were then stimulated with PEP16 at the concentration of 300 ng/ml during 7 days. The culture supernatants were then harvested in order to perform MMP13 enzymatic activity assay.
The MMP13 enzymatic activity was assessed using the MMP13 fluorogenic substrate (Merck Millipore). Briefly, culture supernatants harvested at the end of the different experiments were mixed with 1.5 mM of 4-aminophenylmercuric acetate, and incubated for 1 h at 37° C., in order to turn every pro-MMPs into active MMPs. Then, the fluorogenic substrate was added, and the mixture was incubated for 3 h at 37° C. Fluorescence was evaluated using the following parameters, excitation 325 nm and emission 393 nm, on the Varioskan Flash device (Thermo Fisher Scientific). Recombinant human MMP13 was used as a positive control (Merck Millipore). Negative control consisted in growth medium.

Experiment [3] has as its system MMP13. As to the kind of experiment: MMP13 enzymatic activity in culture supernatants of mouse articular chondrocytes. The experiment is classed as cell-based. The settings on record: PEP16 at 300 ng/mL with IL1β at 100 pg/mL; 24 h. The method, then: Mouse articular chondrocyte (MACs) were isolated from femoral heads by enzymatic digestion of whole femoral head caps. Samples were washed three times in 1% AB/phosphate buffered saline (PBS) and incubated with 2 mg/ml pronase (Roche)/DMEM-F12 at 37° C. for 1 h at slow rotation 100 rpm followed by a 3 h incubation with 1.5 mg/ml collagenase B (Roche)/DMEM-F12 at 37° C. Cells were seeded at 1×10^6 cells/[…], and cultured for 7 to 14 days in growth medium DMEM-F12, containing 1% AB (Gibco), 10% FBS (Gibco) and 5% L-glutamine (Thermoscientific). Passage 1 cells were utilized for the experiments. The culture supernatants were then harvested in order to perform MMP13 enzymatic activity assay. The evaluation of the expression of genes of interest included articular chondrocyte markers (aggrecan, type 2 collagen (col2a1)), YAP/TAZ target genes (ankrd) and pro-catabolic enzyme involved in the pathophysiology of OA (mmp3).
The MMP13 enzymatic activity was assessed using the MMP13 fluorogenic substrate (Merck Millipore). Briefly, culture supernatants harvested at the end of the different experiments were mixed with 1.5 mM of 4-aminophenylmercuric acetate, and incubated for 1 h at 37° C., in order to turn every pro-MMPs into active MMPs. […] Fluorescence was evaluated using the following parameters, excitation 325 nm and emission 393 nm, on the Varioskan Flash device (Thermo Fisher Scientific). […]

In experiment [4] the test system is ATDC5 micromasses. As to the kind of experiment: qRT-PCR relative expression of genes of interest in ATDC5 micromass culture (chondrogenesis). The experiment is classed as cell-based, mouse. As for the experimental part: as §1
Total RNA was isolated using the Nucleospin RNA II kit (Macherey-Nagel) and reverse-transcribed using the MMLV reverse transcriptase (Thermo Fisher Scientific) following the manufacturers' instructions. The iTaq SYBR green qPCR master mix (BioRad) was used to assess the mRNA expression of target genes of interest. Primer sequences can be provided upon request. The following PCR conditions were used: 1 minute at 95° C., 40 cycles of 15 sec of denaturation at 95° C., followed by 1 minute of annealing-elongation at 60° C. Melting curve analysis was performed to determine the amplification of the specific product. Results were expressed using the comparative threshold method and were normalized to housekeeping gene PPIA (Peptidylprolyl Isomerase A) mRNA level for ATDC5 cells and MACs, or normalized to housekeeping gene S29 (ribosomal protein S29) mRNA level for MC3T3-E1 cells. The Via7 real-time PCR system (Thermo Fisher Scientific) was used for qRT-PCR measurements.
ATDC5 cells were cultured as micromasses and differentiated during 14 days using ITS as mentioned previously. […] RNA was isolated and qPCR were performed for different target genes, i.e. type II collagen and aggrecan (articular chondrocyte extracellular matrix), CTGF (YAP/TAZ target genes, indicators of the pathway activity) and MMP3 (cartilage degrading enzyme increased during osteoarthritis) (FIG. 15). Alcian blue staining was performed on the micromasses cultures, and biochemical quantitation was performed as previously described (FIG. 16).
ATDC5 cells were cultured as micromasses and differentiated during 14 days using ITS as mentioned previously. […] RNA was isolated and qPCR were performed for different target genes, i.e. type II collagen and aggrecan (articular chondrocyte extracellular matrix), CTGF (YAP/TAZ target gene, indicator of the pathway activity) and MMP3 (cartilage degrading enzyme increased during osteoarthritis) (FIG. 17). Alcian blue staining was performed on the micromasses cultures, and biochemical quantitation was performed as previously described (FIG. 18).

Setting [5] is: 300 ng/ml, differentiated 14 days with ITS, D14 vs CTL.
[6] abbreviates: PEP16 at 30, 100, 300 ng/mL, day 1, 7, 14, 21, 28, vs non-treated control, normalized with ppia.

As to “DRLGKKVKRWDMKLRH (PEP16) [peptide derived from the netrin-like domain of the FRZB protein]”, the CamKII pathway activation result in the experiment on CamKII pathway is “efficiently increased the activation”. For the same sequence, in the experiment with ATDC5 micromasses [1] (300 ng/ml, 14 days, vs control cells), the “proteoglycans deposition in the extracellular matrix (Alcian blue, absorbance 650 nm)” value is listed as “significantly increase the proteoglycans deposition”. In the experiment on ATDC5 micromasses [1] (PEP16 at 30, 100, 300 ng/mL, Alcian blue at day 28, blue pixels and biochemical quantification), the “glycosaminoglycans quantification (accumulation in the extracellular matrix)” value is recorded as “significantly increased the accumulation of glycosaminoglycans”. Moreover, the “MMP13 enzymatic activity in culture supernatant” value in the experiment on MMP13 [2] is on record as “capable of reducing the enzymatic activity”. In addition, in the experiment on MMP13 [3], the “IL1β-induced MMP13 enzymatic activity in culture supernatant” value is given as “significantly reduced”. For the same sequence, in the experiment on ATDC5 micromasses [4] (setting [5]), the MMP3 expression result is “significant decrease”; the “YAP/TAZ target genes (CTGF) expression” value is “significant decrease”; the “articular chondrocyte extracellular matrix genes (type II collagen and aggrecan) expression” value was “significant increase”. Also, in the experiment on ATDC5 micromasses [4] (setting [6]), the “relative expression level of aggrecan” value is given as “significantly enhanced the induction of the expression”, the “relative expression level of col2a1 (type 2 collagen)” value is listed as “significantly enhanced the induction of the expression”, the “relative expression level of ctgf (Hippo/YAP/TAZ target gene)” value was “efficiently reduced the expression” and the “relative expression level of mmp3” value was “efficiently reduced the expression”. Moreover, in the experiment with ATDC5 micromasses [4] (setting [6]), the “relative expression level of mmp13” value is listed as “efficiently reduced the expression”.
